# According to US10202361B2, “Pyridazinones as herbicides” (E I DU PONT DE NEMOURS AND COMPANY, priority 2014, dated 2019):
# Tests used:
# Experiment in all cases: Test C pre-/postemergence greenhouse herbicide test
# Format in all cases: in vivo
# [1] = test system: foxtail, giant (giant foxtail, Setaria faberii); conditions: Setaria faberi, post-emergence, Foxtail, Giant, Postemergence, read-out: Plant response rating
# Source text: (§1) Seeds of plant species selected from blackgrass (Alopecurus myosuroides), bromegrass, downy (downy bromegrass, Bromus tectorum), foxtail, green (green foxtail, Setaria viridis), ryegrass, Italian (Italian ryegrass, Lolium multiflorum), wheat (winter wheat, Triticum aestivum), oat, wild (wild oat, Avena fatua), galium (catchweed bedstraw, Galium aparine), bermudagrass (Cynodon dactylon), surinam grass (Brachiaria decumbens), cocklebur (common cocklebur, Xanthium strumarium), corn (Zea mays), crabgrass, large (large crabgrass, Digitaria sanguinalis), cupgrass, woolly (woolly cupgrass, Eriochloa villosa), foxtail, giant (giant foxtail, Setaria faberii), goosegrass (Eleusine indica), johnsongrass (Sorghum halepense), kochia (Kochia scoparia), lambsquarters (Chenopodium album), morningglory (Ipomoea coccinea), nightshade (eastern black nightshade, Solanum ptycanthum), nutsedge, yellow (yellow nutsedge, Cyperus esculentus), pigweed (Amaranthus retroflexus), ragweed (common ragweed, Ambrosia elatior), soybean (Glycine max), sunflower (common oilseed sunflower, Helianthus annuus), Russian thistle (Salsola kali), barnyardgrass (Echinochloa crus-galli), oilseed rape (Brassica napus), waterhemp (common waterhemp, Amaranthus rudis), and velvetleaf (Abutilon theophrasti) were planted into a blend of loam soil and sand and treated preemergence with test chemicals formulated in a non-phytotoxic solvent mixture which included a surfactant.
# (§2) At the same time, plants selected from these crop and weed species and also barley (winter barley, Hordeum vulgare), canarygrass (Phalaris minor), windgrass (Apera spica-venti), deadnettle (henbit deadnettle, Lamium amplexicaule), and chickweed (common chickweed, Stellaria media) were planted in pots containing Redi-Earth® planting medium (Scotts Company, 14111 Scottslawn Road, Marysville, Ohio 43041) comprising spaghnum peat moss, vermiculite, wetting agent and starter nutrients and treated with postemergence applications of test chemicals formulated in the same manner. Plants ranged in height from 2 to 18 cm (1- to 4-leaf stage) for postemergence treatments. Treated plants and controls were maintained in a greenhouse for 13 to 15 d, after which time all species were compared to controls and visually evaluated. Plant response ratings, summarized in Table C, are based on a scale of 0 to 100 where 0 is no effect and 100 is complete control. A dash (-) response means no test result.
# [2] = test system: galium (catchweed bedstraw, Galium aparine); conditions: post-emergence, Galium, Postemergence, read-out: Plant response rating
# Source text: as §1, §2
# [3] = test system: kochia (Kochia scoparia); conditions: Postemergence
# Source text: as §1, §2
# [4] = test system: lambsquarters (Chenopodium album); conditions: Postemergence
# Source text: as §1, §2
# [5] = test system: nutsedge, yellow (yellow nutsedge, Cyperus esculentus); conditions: Cyperus, post-emergence, Nutsedge, Yellow, Postemergence, read-out: Plant response rating
# Source text: as §1, §2
# [6] = test system: oat, wild (wild oat, Avena fatua); conditions: Postemergence
# Source text: as §1, §2
# [7] = test system: oilseed rape (Brassica napus); conditions: Oilseed Rape, Postemergence
# Source text: as §1, §2
# [8] = test system: pigweed (Amaranthus retroflexus); conditions: Amaranthus retroflexus, post-emergence, Pigweed, Postemergence, read-out: Plant response rating
# Source text: as §1, §2
# [9] = test system: ragweed (common ragweed, Ambrosia elatior); conditions: Ambrosia artemisiifolia, post-emergence, Ragweed, Postemergence, read-out: Plant response rating
# Source text: as §1, §2
# [10] = test system: ryegrass, Italian (Italian ryegrass, Lolium multiflorum); conditions: Lolium multiflorum, post-emergence, Ryegrass, Italian, Postemergence, read-out: Plant response rating
# Source text: as §1, §2
# [11] = test system: velvetleaf (Abutilon theophrasti); conditions: Abutilon theophrasti, post-emergence, Velvetleaf, Postemergence, read-out: Plant response rating
# Source text: as §1, §2
# [12] = test system: waterhemp (common waterhemp, Amaranthus rudis); conditions: Waterhemp, Postemergence
# Source text: as §1, §2
smiles,measurement,setting,value
"Cc1cc(Oc2ccnc(C(F)(F)F)c2)nn(-c2ccc(C(F)(F)F)cc2)c1=O [Compound 6, 4-methyl-2-[4-(trifluoromethyl)phenyl]-6-[[2-(trifluoromethyl)-4-pyridinyl]oxy]-3(2H)-pyridazinone]",pest or weed control at 31 g/ha,[1]; 31 g ai/ha,25%
same,pest or weed control at 62 g/ha,[1]; 62 g ai/ha,35%
same,pest or weed control at 125 g/ha,[1]; 125 g ai/ha,65%
same,pest or weed control at 250 g/ha,[1]; 250 g ai/ha,85%
same,pest or weed control at 31 g/ha,[2]; 31 g ai/ha,90%
same,pest or weed control at 62 g/ha,[2]; 62 g ai/ha,90%
same,pest or weed control at 125 g/ha,[2]; 125 g ai/ha,90%
same,pest or weed control at 250 g/ha,[2]; 250 g ai/ha,90%
same,Plant response rating,[3]; 31 g ai/ha,90
same,Plant response rating,[3]; 62 g ai/ha,90
same,Plant response rating,[3]; 125 g ai/ha,90
same,Plant response rating,[3]; 250 g ai/ha,95
same,Plant response rating,[4]; 31 g ai/ha,75
same,Plant response rating,[4]; 62 g ai/ha,90
same,Plant response rating,[4]; 125 g ai/ha,95
same,Plant response rating,[4]; 250 g ai/ha,95
same,pest or weed control at 31 g/ha,[5]; 31 g ai/ha,5%
same,pest or weed control at 62 g/ha,[5]; 62 g ai/ha,5%
same,pest or weed control at 125 g/ha,[5]; 125 g ai/ha,5%
same,pest or weed control at 250 g/ha,[5]; 250 g ai/ha,15%
same,Plant response rating,[6]; 31 g ai/ha,20
same,Plant response rating,[6]; 62 g ai/ha,25
same,Plant response rating,[6]; 125 g ai/ha,25
same,Plant response rating,[6]; 250 g ai/ha,50
same,Plant response rating,[7]; 31 g ai/ha,85
same,Plant response rating,[7]; 62 g ai/ha,85
same,Plant response rating,[7]; 125 g ai/ha,95
same,Plant response rating,[7]; 250 g ai/ha,95
same,pest or weed control at 31 g/ha,[8]; 31 g ai/ha,85%
same,pest or weed control at 62 g/ha,[8]; 62 g ai/ha,95%
same,pest or weed control at 125 g/ha,[8]; 125 g ai/ha,95%
same,pest or weed control at 250 g/ha,[8]; 250 g ai/ha,95%
same,pest or weed control at 31 g/ha,[9]; 31 g ai/ha,50%
same,pest or weed control at 62 g/ha,[9]; 62 g ai/ha,55%
same,pest or weed control at 125 g/ha,[9]; 125 g ai/ha,80%
same,pest or weed control at 250 g/ha,[9]; 250 g ai/ha,80%
same,pest or weed control at 31 g/ha,[10]; 31 g ai/ha,5%
same,pest or weed control at 62 g/ha,[10]; 62 g ai/ha,10%
same,pest or weed control at 125 g/ha,[10]; 125 g ai/ha,15%
same,pest or weed control at 250 g/ha,[10]; 250 g ai/ha,35%
same,pest or weed control at 31 g/ha,[11]; 31 g ai/ha,45%
same,pest or weed control at 62 g/ha,[11]; 62 g ai/ha,45%
same,pest or weed control at 125 g/ha,[11]; 125 g ai/ha,55%
same,pest or weed control at 250 g/ha,[11]; 250 g ai/ha,95%
same,Plant response rating,[12]; 31 g ai/ha,95
same,Plant response rating,[12]; 62 g ai/ha,98
same,Plant response rating,[12]; 125 g ai/ha,98
same,Plant response rating,[12]; 250 g ai/ha,98
